Assay [1] concerns Medicago sativa cv. Regen SY. Briefly: atrazine tolerance: rooting and growth of sterile cuttings on sugar-free, hormone-free B5h medium. The format is in vivo. To be noted: untransformed control (SY) plant cuttings, Magenta boxes. An excerpt: Under these conditions plant growth depends on photosynthesis for production of energy and carbon.
The subject of assay [2] is quinone-binding (QB) protein. Particulars: altered QB protein of atrazine resistant weeds; cited from earlier work.
The test system of the next assay is plants. To be noted: cited from earlier work.

The values below come from patent US6369299B1 (Regents of the University of Minnesota, priority 1999, dated 2002).

`CCNc1nc(Cl)nc(NC(C)C)n1` [atrazine, 2-chloro-4-ethylamino-6-isopropylamino-1,3,5-s-triazine]: in assay [1], the “atrazine concentration at which cuttings did not root or grow” value was no less than 500 nM. Also, the “reduced affinity of altered QB protein for atrazine” value in assay [2] is recorded as 1000 fold. Regarding `CCNc1nc(NC(C)C)[nH]c(=O)n1` [hydroxyatrazine], the herbicidal activity entry with plants is reported as “no herbicidal activity”.
